Data from PubChem BioAssay (NCI).
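Test compounds were applied to cells in 96-well plates for 48 hours at 5 doses. TGI: total growth inhibition.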 Where a SMILES comes first, the peptide text is derived from it. The star is where a group is joined. Cbz = O=C(OCc1ccccc1)*

Assays:
Test in all cases: inhibition of tumour cell growth, NCI panel, 48 h
COLO 205 colon = system: COLO 205 colon
SK-MEL-28 melanoma = system: SK-MEL-28 melanoma
UACC-62 melanoma = system: UACC-62 melanoma
HCT-15 colon = system: HCT-15 colon
LOX IMVI melanoma = system: LOX IMVI melanoma
DU-145 prostate = system: DU-145 prostate

Structure (SMILES) | TGI (COLO 205 colon) [µM] | TGI (SK-MEL-28 melanoma) [µM] | TGI (UACC-62 melanoma) [µM] | TGI (HCT-15 colon) [µM] | TGI (LOX IMVI melanoma) [µM] | TGI (DU-145 prostate) [µM]
COc1ccc(C(OCC2OC(n3cc(C)c(=O)[nH]c3=O)CC2n2cc(Cn3cc(Cl)c(=O)[nH]c3=O)nn2)(c2ccccc2)c2ccccc2)cc1 (configuration not stated) | > 100 | > 100 | > 100 | > 100 | > 100 | > 100
CN(C)C1(N(C)C)Oc2c(c(=O)n(C)c(=O)n2C)C(c2ccccc2)C1(F)F (configuration not stated) | > 100 | > 100 | > 100 | > 100 | > 100 | > 100
N#Cc1c(N)n(-c2cccc(C(=O)O)c2)c(=O)c2cc([N+](=O)[O-])ccc12 | > 100 | > 100 | > 100 | > 100 | > 100 | > 100
c1ccc(CCNc2ccccn2)nc1 | > 100 | > 100 | > 100 | > 100 | > 100 | > 100
O=[N+]([O-])c1ccc2c(c1)C1=C(CO2)Cc2ccccc2O1 | 30.6 | – | 50.7 | 31.2 | 30.2 | > 100
O=c1[nH]nc(Cc2ccccc2)n1/N=C/c1ccccc1O | > 100 | > 100 | > 100 | > 100 | > 100 | > 100
CC12CC(c3ccccc3O1)C(C(=O)Nc1ccc(Cl)cc1Cl)C(=O)N2 (configuration not stated) | > 100 | > 100 | > 100 | > 100 | 49.5 | > 100
CCOC(=O)CN1C(=O)c2ccc(NC(=O)C(=O)O)cc2S1(=O)=O | > 100 | > 100 | > 100 | > 100 | > 100 | > 100
CC1OC(OC2C(O)COC(OC3C(C)OC(OC4C(OC(=O)[C@]56CCC(C)(C)C[C@@H]5C5=CCC7[C@@]8(C)C[C@H](O)[C@H](OC9OC(CO)C(O)C(O)C9O)[C@@](C)(CO)[C@@H]8CC[C@@]7(C)[C@]5(C)CC6)OCC(O)C4O)C(O)C3OC3OCC(O)(CO)C3O)C2O)C(O)C(O)C1O (some centres not stated) | 6.37 | 13.6 | 31.6 | 38.7 | 43.2 | 30.3
Cc1c(N=Nc2ccc(Cl)cc2)c(-c2ccccc2)n(C2OC(CO)C(O)C(O)C2O)c(=S)c1C#N (configuration not stated) | 37.7 | 28.7 | 26.1 | 33.9 | 32.7 | 39.4
CCOC(=O)c1nnc2c(C(=O)OCC)c3ccccc3n2c1N | 49.6 | > 100 | 9.25 | > 100 | > 100 | > 100
O=Cc1[nH]c(=O)[nH]c(=O)c1C(=O)O | > 100 | > 100 | > 100 | > 100 | > 100 | > 100
O=C1/C(=C/c2ccccc2S)N=C(c2ccccc2)N1c1nc2c(Cl)cc(Cl)cc2s1 | 54.8 | > 100 | 57.5 | > 100 | 50.4 | > 100
CCC(C)OC(=O)/C(Br)=C1/OC(=O)c2ccccc2-c2ccccc21 (configuration not stated) | 38.1 | 86.7 | 57.5 | 38.5 | 68.2 | > 100
N#Cc1c(-c2ccc(Cl)cc2Cl)nc2[nH][nH]c(=S)n2c1=O | > 100 | > 100 | > 100 | > 100 | > 100 | > 100
CC#CCOC(=O)c1ccccc1OC(C)=O | > 100 | – | > 100 | > 100 | > 100 | > 100
Cn1c(=O)c2c(nc(Cc3ccccc3)n2CC(=O)O)n(C)c1=O | – | > 100 | > 100 | > 100 | > 100 | > 100
C[C@H](CCC(=O)O)[C@H]1CC[C@H]2[C@@H]3CC[C@@H]4C[C@H](O)CC[C@]4(C)[C@H]3C[C@H](O)[C@]12C | 61.8 | > 100 | > 100 | > 100 | > 100 | > 100
COC(=O)C(Cc1c[nH]c2ccccc12)NP(=O)(O)OCC1OC(n2cc(I)c(=O)[nH]c2=O)CC1O (configuration not stated) | > 100 | > 100 | > 100 | > 100 | > 100 | > 100
O=[N+]([O-])/C(C(Cl)=C(Cl)Cl)=C(/Cl)Sc1ccccc1 | 2.75 | 3.28 | 3.36 | 4.85 | 3.65 | 11.2
C/C=C(/C)C(=O)O[C@@H]1CCN2CC[C@H](COC(=O)/C(=C/C)CO)C12 (some centres not stated) | 42.7 | > 100 | > 100 | > 100 | > 100 | > 100
COC(CNC(=O)C(C)NC(=O)/C=C/c1ccccc1)OC (configuration not stated) | > 100 | – | > 100 | > 100 | – | > 100
COc1ccc(S(=O)(=O)c2nnc(S(=O)(=O)Cc3ccccc3)s2)cc1 | 28.5 | 40.3 | – | 50.5 | – | 33
CN1CCN(C(=S)N2CCN(C)CC2)CC1 | 9.45 | > 100 | > 100 | > 100 | > 100 | > 100
O=C(O)CCC(NC(=O)OCc1ccccc1)C(=O)NC(Cc1cnc[nH]1)C(=O)O (stereo not drawn) (Cbz-Glu-His-OH; configuration not given here) | > 100 | > 100 | > 100 | > 100 | > 100 | > 100
Clc1ccc(C2C3COc4ccccc4C3=NN2c2ccccc2)cc1 (configuration not stated) | > 100 | > 100 | > 100 | > 100 | > 48.7 | > 100
COc1cc2c(C)cc(O)cc2c2cc(O)c(C)cc12 | 19.6 | – | 22.3 | 17.9 | 9.22 | 20.9
CCCCCCOC(=O)/C=C/[C@]1(CO)C/C(=C/CC(C(C)C)C(C)C)C(=O)O1 | – | 23.2 | 27.3 | 28.6 | 24.6 | 37
CC(C)C(=O)OCC1OC(n2c(Br)nc3c(=O)[nH]c(N)nc32)C(OC(=O)C(C)C)C1OC(=O)C(C)C (configuration not stated) | > 100 | – | > 100 | > 100 | 55.5 | > 100
NNC(=O)c1n[nH]nc1C(=O)NN | > 100 | – | – | > 100 | – | > 100
